Several values for one entry are separate records, joined by “and”; a condition that tells them apart may be missing. Identical values can stand only once.
Test system: 485368-065-R4-J2-PDC spheroids with HUVEC/MSC, viability
Assay: Anticancer human tumor 485368-065-R4-J2-PDC patient-derived pancreatic carcinoma cell line growth inhibition [CLK]
Settings: for viability, T/C: stronger effect = lower value; active means viability on the fitted dose curve at most 10% of control; inactive means the rest
Procedure, shortened: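 Multi-cell-type spheroids combined patient-derived tumor cells with HUVEC endothelial cells and human mesenchymal stem cells. Paired agents were dosed in half-log steps down from about clinical Cmax, or from 10 microM where Cmax was unknown.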

[1] = curve of first compound, second compound 0.0316 µM
[2] = curve of first compound, second compound 0.1 µM
[3] = curve of first compound, second compound 0.316 µM
[4] = curve of first compound, second compound 1 µM
[5] = curve of first compound, second compound 3.16 µM
[6] = curve of first compound, second compound 10 µM
[7] = second compound 0.0316 µM, first compound 0.0316 µM
[8] = second compound 0.0316 µM, first compound 0.1 µM
[9] = second compound 0.0316 µM, first compound 0.316 µM
[10] = second compound 0.0316 µM, first compound 1 µM
[11] = second compound 0.0316 µM, first compound 3.16 µM
[12] = second compound 0.0316 µM, first compound 10 µM
[13] = second compound 0.1 µM, first compound 0.0316 µM
[14] = second compound 0.1 µM, first compound 0.1 µM
[15] = second compound 0.1 µM, first compound 0.316 µM
[16] = second compound 0.1 µM, first compound 1 µM
[17] = second compound 0.1 µM, first compound 3.16 µM
[18] = second compound 0.1 µM, first compound 10 µM
[19] = second compound 0.316 µM, first compound 0.0316 µM
[20] = second compound 0.316 µM, first compound 0.1 µM
[21] = second compound 0.316 µM, first compound 0.316 µM
[22] = second compound 0.316 µM, first compound 1 µM
[23] = second compound 0.316 µM, first compound 3.16 µM
[24] = second compound 0.316 µM, first compound 10 µM
[25] = second compound 1 µM, first compound 0.0316 µM
[26] = second compound 1 µM, first compound 0.1 µM
[27] = second compound 1 µM, first compound 0.316 µM
[28] = second compound 1 µM, first compound 1 µM
[29] = second compound 1 µM, first compound 3.16 µM
[30] = second compound 1 µM, first compound 10 µM
[31] = second compound 3.16 µM, first compound 0.0316 µM
[32] = second compound 3.16 µM, first compound 0.1 µM
[33] = second compound 3.16 µM, first compound 0.316 µM
[34] = second compound 3.16 µM, first compound 1 µM
[35] = second compound 3.16 µM, first compound 3.16 µM
[36] = second compound 3.16 µM, first compound 10 µM
[37] = second compound 10 µM, first compound 0.0316 µM
[38] = second compound 10 µM, first compound 0.1 µM
[39] = second compound 10 µM, first compound 0.316 µM
[40] = second compound 10 µM, first compound 1 µM
[41] = second compound 10 µM, first compound 3.16 µM
[42] = second compound 10 µM, first compound 10 µM
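Further: spheroids exposed to compounds for seven days.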
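Wherever viability, T/C is given: 100% = DMSO vehicle control wells.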

C=C(F)C(=O)N1CCN(c2nc(OCC3CCCN3C)nc3c2CCN(c2cccc4cccc(Cl)c24)C3)CC1CC#N (configuration not stated) + CNC(=O)c1ccc(Nc2nc(OC3CCCC3)c3c(-c4ccc5nc(C)oc5c4)c[nH]c3n2)c(OC)c1
inactive: viability, T/C [7] 83.5% | viability, T/C [8] 105% | viability, T/C [9] 85.8% | viability, T/C [10] 101% | viability, T/C [11] 115% | viability, T/C [12] 99% | viability, T/C [13] 98.2% | viability, T/C [14] 95.4% | viability, T/C [15] 107% | viability, T/C [16] 112% | viability, T/C [17] 111% | viability, T/C [18] 108% | viability, T/C [19] 79.8% | viability, T/C [20] 80.9% | viability, T/C [21] 89.1% | viability, T/C [22] 92.9% | viability, T/C [23] 82.7% | viability, T/C [24] 93.5% | viability, T/C [25] 81.9% | viability, T/C [26] 79.7% | viability, T/C [27] 77.6% | viability, T/C [28] 78.5% | viability, T/C [29] 94.5% | viability, T/C [30] 107% | viability, T/C [31] 74.4% | viability, T/C [32] 70.2% | viability, T/C [33] 76.1% | viability, T/C [34] 78.1% | viability, T/C [35] 80.9% | viability, T/C [36] 90.4% | viability, T/C [37] 71.6% | viability, T/C [38] 76.4% | viability, T/C [39] 76.1% | viability, T/C [40] 80% | viability, T/C [41] 71.3% | viability, T/C [42] 43%
7.59 µM: IC50 [6]
> 10 µM: IC50 [1] | IC50 [2] | IC50 [3] | IC50 [4] | IC50 [5]

Nc1ccn(C2OC(CO)C(O)C2(F)F)c(=O)n1 (configuration not stated)
< 0.0316 µM and 0.0477 µM: IC50 (curve of compound)
inactive: viability, T/C (compound 0.0316 µM) 46.4% and 56.8% | viability, T/C (compound 0.1 µM) 30.6% and 37.9% | viability, T/C (compound 0.316 µM) 29.7% and 32.5% | viability, T/C (compound 1 µM) 31.6% and 32.8% | viability, T/C (compound 3.16 µM) 31.5% and 31.4% | viability, T/C (compound 10 µM) 26.7% and 30.9%

CCN1CCN(Cc2ccc(Nc3ncc(F)c(-c4cc(F)c5nc(C)n(C(C)C)c5c4)n3)nc2)CC1 + CN1CCN(c2cc(C(=O)Nc3cc4cc(-c5cnn(C)c5)ccc4cn3)ccn2)CC1
> 1 µM: IC50 [1] | IC50 [2] | IC50 [3]
active: viability, T/C (second compound 1 µM, first compound 0.00316 µM) 0.99% | viability, T/C (second compound 1 µM, first compound 0.01 µM) 0.79% | viability, T/C [25] 1.5% | viability, T/C [26] 1.72% | viability, T/C [27] 3.79% | viability, T/C [28] 6.61% | viability, T/C (second compound 3.16 µM, first compound 0.00316 µM) 1.45% | viability, T/C (second compound 3.16 µM, first compound 0.01 µM) 1.98% | viability, T/C [31] 1.44% | viability, T/C [32] 3.25% | viability, T/C [33] 3.87% | viability, T/C [34] 6.47% | viability, T/C (second compound 10 µM, first compound 0.00316 µM) 1.45% | viability, T/C (second compound 10 µM, first compound 0.01 µM) 1.41% | viability, T/C [37] 2.59% | viability, T/C [38] 1.89% | viability, T/C [39] 2.62% | viability, T/C [40] 3.7%
inactive: viability, T/C (second compound 0.0316 µM, first compound 0.00316 µM) 94.5% | viability, T/C (second compound 0.0316 µM, first compound 0.01 µM) 116% | viability, T/C [7] 110% | viability, T/C [8] 138% | viability, T/C [9] 132% | viability, T/C [10] 120% | viability, T/C (second compound 0.1 µM, first compound 0.00316 µM) 103% | viability, T/C (second compound 0.1 µM, first compound 0.01 µM) 112% | viability, T/C [13] 113% | viability, T/C [14] 113% | viability, T/C [15] 126% | viability, T/C [16] 109% | viability, T/C (second compound 0.316 µM, first compound 0.00316 µM) 79% | viability, T/C (second compound 0.316 µM, first compound 0.01 µM) 76.1% | viability, T/C [19] 79.3% | viability, T/C [20] 78.9% | viability, T/C [21] 66.8% | viability, T/C [22] 60.7%
< 0.00316 µM: IC50 [4] | IC50 [5] | IC50 [6]

CC1COCCN1c1cc(C2(S(C)(=N)=O)CC2)nc(-c2ccnc3[nH]ccc23)n1 (configuration not stated) + CN1CCN(c2cc(C(=O)Nc3cc4cc(-c5cnn(C)c5)ccc4cn3)ccn2)CC1
6.83 µM: IC50 [3]
< 0.0316 µM: IC50 [4] | IC50 [5] | IC50 [6]
inactive: viability, T/C [7] 102% | viability, T/C [8] 111% | viability, T/C [9] 102% | viability, T/C [10] 119% | viability, T/C [11] 118% | viability, T/C [12] 107% | viability, T/C [13] 107% | viability, T/C [14] 119% | viability, T/C [15] 113% | viability, T/C [16] 120% | viability, T/C [17] 103% | viability, T/C [18] 90.9% | viability, T/C [19] 88.5% | viability, T/C [20] 88.3% | viability, T/C [21] 74.8% | viability, T/C [22] 75.2% | viability, T/C [23] 60.3% | viability, T/C [24] 44.4%
active: viability, T/C [25] 1% | viability, T/C [26] 1.87% | viability, T/C [27] 1.95% | viability, T/C [28] 1.83% | viability, T/C [29] 1.71% | viability, T/C [30] 2.07% | viability, T/C [31] 1.39% | viability, T/C [32] 2.33% | viability, T/C [33] 2.68% | viability, T/C [34] 2.72% | viability, T/C [35] 3.59% | viability, T/C [36] 1.89% | viability, T/C [37] 1.49% | viability, T/C [38] 2.62% | viability, T/C [39] 2.44% | viability, T/C [40] 1.98% | viability, T/C [41] 1.76% | viability, T/C [42] 3.15%
> 10 µM: IC50 [1] | IC50 [2]

C=CC(=O)N1CCN(c2nc(=O)n(-c3c(C)ccnc3C(C)C)c3nc(-c4c(O)cccc4F)c(F)cc23)C(C)C1 (configuration not stated) + CN1CCN(c2cc(C(=O)Nc3cc4cc(-c5cnn(C)c5)ccc4cn3)ccn2)CC1
< 0.0316 µM: IC50 [4] | IC50 [5] | IC50 [6]
active: viability, T/C [25] 1.22% | viability, T/C [26] 1.11% | viability, T/C [27] 1.36% | viability, T/C [28] 1.9% | viability, T/C [29] 3.44% | viability, T/C [30] 3.58% | viability, T/C [31] 3.01% | viability, T/C [32] 2.65% | viability, T/C [33] 2.4% | viability, T/C [34] 2.51% | viability, T/C [35] 4.69% | viability, T/C [36] 10.6% | viability, T/C [37] 1.58% | viability, T/C [38] 2.84% | viability, T/C [39] 2.36% | viability, T/C [40] 3.44% | viability, T/C [41] 4% | viability, T/C [42] 8.87%
inactive: viability, T/C [7] 107% | viability, T/C [8] 106% | viability, T/C [9] 99.6% | viability, T/C [10] 104% | viability, T/C [11] 99.5% | viability, T/C [12] 106% | viability, T/C [13] 96.7% | viability, T/C [14] 121% | viability, T/C [15] 107% | viability, T/C [16] 108% | viability, T/C [17] 105% | viability, T/C [18] 102% | viability, T/C [19] 83.3% | viability, T/C [20] 86.6% | viability, T/C [21] 94.9% | viability, T/C [22] 94.1% | viability, T/C [23] 88.9% | viability, T/C [24] 78.7%
> 10 µM: IC50 [1] | IC50 [2] | IC50 [3]

CC(=O)O[C@H]1C(=O)[C@@]2(C)[C@H]([C@H](OC(=O)c3ccccc3)[C@]3(O)C[C@H](OC(=O)[C@H](O)[C@@H](NC(=O)c4ccccc4)c4ccccc4)C(C)=C1C3(C)C)[C@]1(OC(C)=O)CO[C@@H]1C[C@@H]2O + CNC(=O)c1ccc(Nc2nc(OC3CCCC3)c3c(-c4ccc5nc(C)oc5c4)c[nH]c3n2)c(OC)c1
> 10 µM: IC50 [1] | IC50 [2] | IC50 [3] | IC50 [4] | IC50 [5] | IC50 [6]
inactive: viability, T/C [7] 63.4% | viability, T/C [8] 49.2% | viability, T/C [9] 55.9% | viability, T/C [10] 62.6% | viability, T/C [11] 56.5% | viability, T/C [12] 55.8% | viability, T/C [13] 59.1% | viability, T/C [14] 66.3% | viability, T/C [15] 60.4% | viability, T/C [16] 56.7% | viability, T/C [17] 55.2% | viability, T/C [18] 76.5% | viability, T/C [19] 76.3% | viability, T/C [20] 79.7% | viability, T/C [21] 85.2% | viability, T/C [22] 85.6% | viability, T/C [23] 86.6% | viability, T/C [24] 102% | viability, T/C [25] 73.8% | viability, T/C [26] 82.2% | viability, T/C [27] 81.6% | viability, T/C [28] 83.5% | viability, T/C [29] 90.5% | viability, T/C [30] 91.9% | viability, T/C [31] 74.4% | viability, T/C [32] 80.1% | viability, T/C [33] 86.4% | viability, T/C [34] 78.6% | viability, T/C [35] 88% | viability, T/C [36] 88.9% | viability, T/C [37] 67.5% | viability, T/C [38] 78.8% | viability, T/C [39] 73.9% | viability, T/C [40] 77.5% | viability, T/C [41] 82.4% | viability, T/C [42] 95.4%

— PubChem BioAssay AID2060617 (Molecular Pharmacology Branch, DTP, NCI, 2025)
